Results published in PMC9968691, “Perfluoroalkyl substances (PFASs) are substrates of the renal human organic anion transporter 4 (OAT4)” (Archives of Toxicology, 2022).
“Also recorded” adds a separate entry of the source. Marks after values point to notes of the source that are not given here.

Assays:
URAT1 [1] = tested on: URAT1; set-up: method as in Iwanaga et al. 2005; Morrissey et al. 2012; conditions: probe substrate; ref Iwanaga et al. 2005; Morrissey et al. 2012; cited from earlier work
human OAT4 [2] = biological target: T1, human OAT4 (Homo sapiens, UniProt Q9NSA0); assay: Screening of cellular PFAS accumulation in OAT4-transfected vs control-transfected HEK293 cells (PFAS mixture); assay type: cell-based; conditions: for Transport by OAT4 (cellular PFAS level in OAT4-transfected vs control-transfected cells; substantial = at least twofold higher): PFAS mixture, each 1 µM, 10 min; for OAT4 substrate: yes/no as identified in vitro in this study
T1 construct: expressed in transfected cells; host or cells: HEK293 cells transduced with recombinant baculovirus (CMV promoter)
T1 sequence (Q9NSA0 1-550): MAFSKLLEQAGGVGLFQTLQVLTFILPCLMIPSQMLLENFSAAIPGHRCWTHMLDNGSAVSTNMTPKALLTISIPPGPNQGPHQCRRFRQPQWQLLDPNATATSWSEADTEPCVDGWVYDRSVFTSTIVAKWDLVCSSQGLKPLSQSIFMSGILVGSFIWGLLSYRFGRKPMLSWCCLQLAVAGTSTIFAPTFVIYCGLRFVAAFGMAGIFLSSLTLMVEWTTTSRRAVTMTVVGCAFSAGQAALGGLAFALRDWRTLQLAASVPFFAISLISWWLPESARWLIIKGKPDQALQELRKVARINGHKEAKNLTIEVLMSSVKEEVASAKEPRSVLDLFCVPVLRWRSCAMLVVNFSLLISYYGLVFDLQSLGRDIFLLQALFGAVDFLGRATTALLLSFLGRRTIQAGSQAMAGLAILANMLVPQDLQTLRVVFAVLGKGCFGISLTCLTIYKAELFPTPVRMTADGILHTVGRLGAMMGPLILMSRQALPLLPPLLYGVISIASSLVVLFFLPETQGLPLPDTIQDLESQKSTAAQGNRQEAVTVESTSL
Description: (§1) The recombinant baculoviruses that contain the cDNA of human transporters OAT4 and URAT1 downstream of a cytomegalovirus (CMV) promotor were generated as previously described (Smeets et al. [2020]). As a negative control, baculovirus containing the gene for enhanced yellow fluorescence protein (eYFP) was produced similarly. Moreover, transduction of HEK293 cells and uptake assays were essentially performed as previously described (Smeets et al. [2020]). The culture medium was removed and cells were washed with buffer (HBSS plus 10 mM HEPES, pH 7.4). Uptake was initiated by replacing this solution with 150 µL of fresh transport buffer (HBSS (Life Technologies Invitrogen (Carlsbad, CA, USA))-HEPES (Sigma-Aldrich), pH 7.4) supplemented with the PFASs for 10 min. To terminate the reaction, transport buffer was replaced with 400 µL ice-cold HBSS-HEPES buffer containing 0.5% BSA (m/v; Roche Diagnostics GmbH (Mannheim, Germany)), after which the cells were washed twice with ice-cold HBSS-HEPES. Cellular PFAS concentrations were determined based on the method described by Rosenmai et al. ([2018]). Briefly, cells were solubilised in 250 µL lysis buffer and cell lysates were stored in Eppendorf tubes at − 80 °C and defrozen when needed for LC–MS analysis and for quantification of the protein concentration.
(§2) To 50 μL cell lysate, 850 μL methanol (Actu-All Chemicals, Oss, The Netherlands) containing internal standards (^13C4-PFHpA, ^13C4-PFOA, ^13C5-PFNA, ^13C2-PFDA, ^13C3-PFBS, ^18O2-PFHxS and ^13C4-PFOS (Wellington Laboratories, Canada) was added. These dilutions were vortexed well before centrifugation at maximum speed for 10 min at 4 °C. PFAS concentrations in the supernatant were determined using LC–MS/MS analysis. If required, samples were further diluted with methanol and containing internal standards. LC–MS/MS analysis was based on a Shimadzu UHPLC system containing: 2 pumps (LC 20AD xr); column oven (Shimadzu CTO-20AC); pump switch (Shimadzu FCV-11AL); degasser (Shimadzu DGU-20A3); and sample tray holder (Shimadzu SIL-20 AC XR model) (Shimadzu Corporation, Kyoto, Japan). An Acquity BEH-C18 analytical column (50 × 2.1 mm i.d., 1.7 μm, Waters, Milford, MA, USA) was used to separate the PFASs at a column temperature of 35 °C. In addition, a symmetry C18 analytical column (50 × 2.1 mm i.d., 5 µm, Waters, Milford, MA, USA) was used as a guard column, placed between the pump and the injector valve to isolate and delay interferences out of the LC system. The mobile phase consisted of 2 mM ammonium acetate (Merck Millipore, Darmstadt, Germany) in Milli-Q water (prepared using a Milli-Q system with a resistivity of at least 18.2 MΩ cm^−1 (Merck Millipore)) (mobile phase A) and Acetonitrile ULC/MS grade (Actu-All Chemicals, Oss, The Netherlands) (mobile phase B). The injection volume used was 20 μL. The chromatographic gradient was operated at a flow rate of 0.3 mL min^−1 starting from 25% mobile phase B in the first 0.1 min, a linear increase to 100% B in 6 min with a final hold of 2.5 min. The gradient was returned to 25% B within 0.1 min for 3.9 min to equilibrate before the next injection, resulting in a total run of 12.5 min.
(§3) Cellular PFAS content was normalised to cellular protein. To that end, from each cell lysate, 25 µL was used to determine the protein concentration (technical duplicate) using the Pierce BCA Protein Assay Kit (Thermo Scientific, Waltham, MA). First, samples were diluted two times with lysis buffer directly in a 96-wells plate (PS, F-bottom, clear; Greiner Bio-One, Alphen aan de Rijn, The Netherlands), and in each plate, a BSA standard curve (0.05–2 mg mL^−1 in lysis buffer) was included allowing protein quantification of the samples. The manufacturer’s protocol was followed for the subsequent steps and absorbance was measured using a microplate reader (Synergy™ HT BioTek, Winooski, VT) at 562 nm. […]

human URAT1 = biological target: T2, human URAT1 (Homo sapiens, UniProt Q96S37); assay: Screening of cellular PFAS accumulation in URAT1-transfected vs control-transfected HEK293 cells (PFAS mixture); assay type: cell-based; conditions: yes/no as identified in vitro in this study
T2 construct: expressed in transfected cells; host or cells: HEK293 cells transduced with recombinant baculovirus (CMV promoter)
T2 sequence (Q96S37 1-553): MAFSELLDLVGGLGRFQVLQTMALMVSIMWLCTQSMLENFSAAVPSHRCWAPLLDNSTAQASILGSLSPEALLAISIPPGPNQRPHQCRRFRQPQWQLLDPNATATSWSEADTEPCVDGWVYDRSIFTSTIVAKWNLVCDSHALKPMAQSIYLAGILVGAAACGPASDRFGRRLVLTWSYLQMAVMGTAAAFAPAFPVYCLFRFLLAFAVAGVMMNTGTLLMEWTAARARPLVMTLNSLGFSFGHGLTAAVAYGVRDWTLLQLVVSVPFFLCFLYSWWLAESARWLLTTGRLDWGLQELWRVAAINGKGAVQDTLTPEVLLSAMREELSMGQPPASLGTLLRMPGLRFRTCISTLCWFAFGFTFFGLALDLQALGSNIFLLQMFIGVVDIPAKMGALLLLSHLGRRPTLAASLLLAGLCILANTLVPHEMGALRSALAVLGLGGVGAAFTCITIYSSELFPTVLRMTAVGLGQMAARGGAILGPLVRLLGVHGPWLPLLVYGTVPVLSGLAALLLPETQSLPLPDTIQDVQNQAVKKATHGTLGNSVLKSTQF
Description: as §1, §2, §3

OAT4 [3] = tested on: OAT4; set-up: method as in Yang et al. 2010; conditions: OAT4-expressing CHO cells; ref Yang et al. 2010; cited from earlier work
URAT1 [4] = tested on: URAT1; set-up: method as in Yang et al. 2010; conditions: URAT1-expressing HEK293 cells; ref Yang et al. 2010; cited from earlier work
albumin = conditions: ref Allendorf et al. (2019); cited from earlier work
[5] = (average) serum half-life; ref Xu et al. (2020) for PFHpA; Olsen et al. (2007), Li et al. (2018), Xu et al. (2020) for PFOA, PFHxS, PFOS; Olsen et al. (2009) for PFBS; cited from earlier work
human OAT4 [6] = biological target: T1, human OAT4; assay: OAT4-mediated cellular uptake kinetics (Michaelis–Menten) in OAT4-transfected vs control-transfected HEK293 cells; assay type: cell-based; conditions: OAT4-transfected minus control-transfected HEK293 cells, 1 min exposure, 1-300 µM; best-fit value (standard error)
Description: OAT4- and control-transfected cells were exposed for 1 min to a range of PFAS concentrations (1, 3, 10, 30, 100 and 300 µM) and cellular amounts were determined.
OAT4-transfected cells and control-transfected cells were exposed for 1 min to a range of PFAS concentrations and cellular amounts were determined. Amounts obtained in control-transfected cells were subtracted from amounts obtained in OAT4-transfected cells to obtain OAT4-mediated cellular uptake rates.

OAT4 [7] = tested on: OAT4; set-up: method as in Kimura et al. 2002; Morrissey et al. 2012; conditions: probe substrate; ref Kimura et al. 2002; Morrissey et al. 2012; cited from earlier work

Row | SMILES | URAT1 substrate (URAT1 [1]) | Transport by OAT4 (cellular PFAS level in OAT4-transfected vs control-transfected cells; substantial = at least twofold higher) (human OAT4 [2]) | OAT4 substrate (human OAT4 [2]) | URAT1 substrate (human URAT1) | Km (OAT4 [3]) | Vmax (OAT4 [3]) | Km (URAT1 [4]) | Vmax (URAT1 [4]) | Reported albumin/water partition coefficients (albumin) | Reported half-life in humans [5] | Apparent Vmax (human OAT4 [6]) | OAT4 substrate (OAT4 [7])
1 | O=c1[nH]c(=O)c2[nH]c(=O)[nH]c2[nH]1 [Uric acid, uric acid] | Yes |  |  |  |  |  |  |  |  |  |  | 
2 | O=C(O)C(F)(F)C(F)(F)C(F)(F)C(F)(F)C(F)(F)C(F)(F)C(F)(F)F [PFOA, perfluorooctanoic acid] |  | substantial transport; also recorded: more than twofold increase | Yes | No | 310 µM | 37 nmol min^−1 mg protein^−1 | 64 µM | 0.32 nmol min^−1 mg protein^−1 | 4.2 L/kg | 1.8–3.8^c years |  | 
3 | O=S(=O)(O)C(F)(F)C(F)(F)C(F)(F)C(F)(F)C(F)(F)C(F)(F)C(F)(F)C(F)(F)F [PFOS, perfluorooctane sulfonate] |  | substantial transport; also recorded: more than twofold increase | Yes | No |  |  |  |  | 4.7 L/kg | 1.8–5.4^c years | 2.2 nmol min^−1 mg protein^−1 | 
4 | CCCCC[C@H](O)/C=C/[C@H]1[C@H](O)CC(=O)[C@@H]1C/C=C\CCCC(=O)O [Prostaglandin E2, prostaglandin E2] |  |  |  |  |  |  |  |  |  |  |  | Yes
